# Results from paper PMC10820528, “New Rare Triterpene Glycosides from Pacific Sun Star, Solaster pacificus, and Their Anticancer Activity” (Marine Drugs, 2023).
# Where two headings read alike, the source gives them in different places.
# Assays:
# [1] = tested on: breast cancer MDA-MB-231 cells; assay: cells; assay type: cell-based; conditions: for IC50: read-out: IC50, MDA-MB-231
# Method: (§1) We calculated the inhibiting concentration that cause death of 50% of cells (IC50) and the selectivity index (SI) of the compounds tested (Table 4).
# (§2) The human embryonic kidney HEK 293 cells (ATCC® CRL-1573™), breast cancer MDA-MB-231 cells (ATCC® HTB-26™), and colorectal carcinoma HCT 116 cells (ATCC® CCL-247™) were purchased from the American Type Culture Collection (Manassas, VA, USA). The HEK 293 and MDA-MB-231 cells were cultured in DMEM; the HCT 116 cells were cultured in the McCoy’s 5A medium at 37 °C in a humidified atmosphere containing 5% CO2. The culture media were supplemented with 10% heat-inactivated FBS and a 1% penicillin/streptomycin solution. The number of passages was carefully controlled, and contamination by Mycoplasma was monitored on a regular basis.
# (§3) Compounds 1–3, and 6–8 were dissolved in sterile dimethyl sulfoxide (DMSO), to prepare stock concentrations of 20 mM. Cells were treated with serially diluted 1–3, 6–8 (0.3–100 µM) (with the culture medium used as diluent) (the final concentration of DMSO was less than 0.5%). The vehicle control was the cells treated with an equivalent volume of DMSO (the final concentration was less than 0.5%) for all of the presented experiments.
# (§4) HEK 293 (1.0 × 10^4/200 µL), HCT 116 (1.0 × 10^4/200 µL), and MDA-MB-231 (0.8 × 10^4/200 µL) cells were seeded in a 96-well plate and incubated for 24 h at 37 °C in a CO2 incubator. […] The cells were subsequently incubated with 15 µL of the MTS reagent for 3 h. The absorbance of each well was measured at 490/630 nm on a Power Wave XS microplate reader (BioTek, Winooski, VT, USA).
# (§5) The IC50 concentration was calculated using the AAT-Bioquest® online calculator [24]. The selectivity index (SI) was calculated as described previously, using the following formula: SI = IC50 of the compounds for normal cells (HEK 293) divided by IC50 of the same compounds for the human colorectal adenocarcinoma and breast cancer (HCT 116 and MDA-MB-231) cell lines.
# [2] = tested on: human embryonic kidney HEK 293 cells; assay: cells; assay type: cell-based; conditions: for IC50: read-out: IC50, HEK 293
# Method: as §1, §2, §3, §4, §5
# [3] = tested on: colorectal carcinoma HCT 116 cells; assay: cells; assay type: cell-based; conditions: for IC50: Homo sapiens, read-out: IC50, HCT 116
# Method: We determined the cytotoxicity of compounds 1–3 and 6–8 against human embryonic kidney HEK 293, colorectal carcinoma HCT 116, and breast cancer MDA-MB-231 cells by the MTS assay, after 24 h of treatment with the compounds. We calculated the inhibiting concentration that cause death of 50% of cells (IC50) and the selectivity index (SI) of the compounds tested (Table 4).
# as §2, §3, §4, §5
# [4] = tested on: HT-29 cells; conditions: non-toxic concentration; cited from earlier work
# [5] = tested on: RPMI-7951 cells; conditions: non-toxic concentration; cited from earlier work
# [6] = tested on: MDA-MB-231 cells; conditions: non-toxic concentration; cited from earlier work
# [7] = MTS assay, cisplatin, 48 h of cell incubation, mean ± SD
# [8] = Homo sapiens, MDA-MB-231, MTS assay, 24 h of cell incubation, mean ± SD
# [9] = Homo sapiens, HEK293, MTS assay, 24 h of cell incubation, mean ± SD
# [10] = HCT-116, MTS assay, 24 h of cell incubation, mean ± SD
Molecule,"IC50 [1, 8] [µM]","IC50 [2, 9] [µM]","IC50 [3, 10] [µM]",colony formation of HT-29 cells [4],colony formation of RPMI-7951 cells [5],colony formation of MDA-MB-231 cells [6],further results
"N.N.[Cl][Pt][Cl] [Cisplatin, cisplatin, reference compound]",,,,,,,"IC50 [1, 7]: 34.5 ± 0.5 µM; IC50 [2, 7]: 64.6 ± 1.5 µM"
"C=C(C)C1C2CC3(C)C4=CCC5C(C)(C)C(OC6OCC(O)C(O)C6OC6OC(C)C(O)C(O)C6OC6OCC(O)C(O)C6O)CCC5(C)C4CCC13C(=O)O2 [Compound 1, 3β-O-[β-D-xylopyranosyl-(1→2)-β-D-quinovopyranosyl-(1→2)-β-D-xylopyranosyl]-23,24,25,26,27-pentanor-5α-lanosta-7,20(22)-diene-18(16)-lactone]",51.2 ± 0.8,27 ± 0.3,81 ± 3.2,,,,
"CO[C@@H]1[C@@H](O)[C@H](O[C@@H]2[C@@H](O)[C@H](O[C@H]3[C@H](O)[C@@H](O)[C@H](O[C@H]4[C@H](O[C@H]5CC[C@]6(C)C7=C(CC[C@H]6C5(C)C)[C@]5(C)C[C@H](O)[C@H]([C@@](C)(O)CCC=C(C)C)[C@@]5(CO)CC7)OC[C@@H](O)[C@@H]4O)O[C@@H]3C)O[C@H](CO)[C@H]2O)OC[C@H]1O [Compound 3, (20S)-3β-O-[3-O-methyl-β-D-xylopyranosyl-(1→3)-β-D-glucopyranosyl-(1→4)-β-D-quinovopyranosyl-(1→2)-β-D-xylopyranosyl]-16β,18,20-trihydroxy-5α-lanosta-8(9),24-diene]",36.7 ± 3.3,52.8 ± 0.8,42.2 ± 0.4,,,,"cytotoxic activity in words, MDA-MB-231 [1]: Moderate; SI (selectivity index), MDA-MB-231 ([1]; mean IC50 against normal cells (HEK 293)/mean IC50 against MDA-MB-231, 24 h): 1.4; cytotoxic activity in words, HEK 293 [2]: Moderate; cytotoxic activity in words, HCT 116 [3]: Moderate; SI (selectivity index), HCT 116 ([3]; mean IC50 against normal cells (HEK 293)/mean IC50 against HCT 116, 24 h): 1.25"
"COC1C(O)COC(OC2C(O)C(CO)OC(OC3C(C)OC(OC4C(OC5CCC6(C)C7=C(CCC6C5(C)C)C5(C)CC(OC(C)=O)C6C(C)(C=CC=C(C)C)OC(=O)C65CC7)OCC(O)C4O)C(O)C3O)C2O)C1O [Compound 6, 3β-O-[3-O-methyl-β-D-xylopyranosyl-(1→3)-β-D-glucopyranosyl-(1→4)-β-D-quinovopyranosyl-(1→2)-β-D-xylopyranosyl]-16β-acetoxyholosta-8(9),22E,24-triene]",29.8 ± 2.1,15.3 ± 1.2,25.5 ± 1.4,,,,
"CC(=O)OC1CC2(C)C3=CCC4C(C)(C)C(OC5OCC(O)C(O)C5OC5OC(C)C(O)C(O)C5OC5OCC(O)C(O)C5O)CCC4(C)C3CCC23C(=O)OC(C)(C=CC=C(C)C)C13 (stereo not shown) [Compound 7, cucumarioside B1]",,,,,,,"IC50 ([1]; Homo sapiens, MDA-MB-231, 24 h): 34 ± 2.9 µM; IC50 ([2]; Homo sapiens, HEK293, 24 h): 28.5 ± 1.5 µM; IC50 ([3]; HCT-116, 24 h): 35.6 ± 0.6 µM"
"COC1C(O)COC(OC2C(O)C(CO)OC(OC3C(C)OC(OC4C(OC5CCC6(C)C7CCC89C(=O)OC(C)(C=CC=C(C)C)C8C(OC(C)=O)CC9(C)C7=CCC6C5(C)C)OCC(O)C4O)C(O)C3O)C2O)C1O (stereo not shown) [Compound 8, cucumarioside A5]",,,,,,,"IC50 ([1]; Homo sapiens, MDA-MB-231, 24 h): 13.1 ± 4.2 µM; IC50 ([2]; Homo sapiens, HEK293, 24 h): 6.2 ± 0.7 µM; IC50 ([3]; HCT-116, 24 h): 11.4 ± 2.7 µM"
CO[C@@H]1[C@@H](O)[C@H](O[C@@H]2[C@@H](O)[C@H](O[C@H]3[C@H](O)[C@@H](O[C@@H]4OC[C@@H](O)[C@H](O)[C@H]4O)[C@H](O[C@H]4[C@H](O[C@H]5CC[C@]6(C)[C@@H]7CCC89C(=O)O[C@@](C)(/C=C\C=C(C)C)[C@H]8[C@@H](OC(C)=O)C[C@@]9(C)C7=CC[C@H]6C5(C)C)OC[C@@H](O)[C@@H]4O)O[C@@H]3C)O[C@H](CO)[C@H]2O)OC[C@H]1O (stereo partly shown) [cucumarioside C1],,,,almost completely suppress,almost completely suppress,almost completely suppress,
COC1C(O)COC(OC2C(O)C(CO)OC(OC3C(C)OC(OC4C(OC5CCC6(C)C7CCC89C(=O)OC(C)(/C=C/C=C(C)C)C8C(OC(C)=O)CC9(C)C7=CCC6C5(C)C)OCC(O)C4O)C(OC4OCC(O)C(O)C4O)C3O)C2O)C1O (stereo not shown) [cucumarioside C2],,,,almost completely suppress,almost completely suppress,almost completely suppress,
pacificusoside C,,,,almost completely suppress,almost completely suppress,almost completely suppress,
